According to publication PMC11206922, “Novel Histone Deacetylase (HDAC) Inhibitor Induces Apoptosis and Suppresses Invasion via E-Cadherin Upregulation in Pancreatic Ductal Adenocarcinoma (PDAC)” (Pharmaceuticals, 2024):

Molecular target: T1, HDAC 2 (Homo sapiens, UniProt Q92769)
T1 construct: gene HDAC2
Assay: HDAC enzyme inhibition assay (details not shown)
Assay type: biochemical

T1 sequence (Q92769 whole entry): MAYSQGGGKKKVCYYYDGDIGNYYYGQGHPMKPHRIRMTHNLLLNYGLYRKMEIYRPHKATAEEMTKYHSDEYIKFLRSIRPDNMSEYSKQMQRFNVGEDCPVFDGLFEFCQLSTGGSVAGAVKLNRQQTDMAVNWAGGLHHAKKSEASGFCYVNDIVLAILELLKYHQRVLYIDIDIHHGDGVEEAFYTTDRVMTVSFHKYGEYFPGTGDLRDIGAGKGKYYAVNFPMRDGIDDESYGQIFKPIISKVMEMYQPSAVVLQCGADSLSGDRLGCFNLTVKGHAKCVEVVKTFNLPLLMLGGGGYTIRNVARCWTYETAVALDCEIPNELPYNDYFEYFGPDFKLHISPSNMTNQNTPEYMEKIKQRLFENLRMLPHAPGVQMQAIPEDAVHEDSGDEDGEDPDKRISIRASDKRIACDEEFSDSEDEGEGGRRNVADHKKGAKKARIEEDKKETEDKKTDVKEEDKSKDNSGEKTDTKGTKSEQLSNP

- IC50: 58 ± 20 nM
SMILES: COc1cc(NC(=O)NCCCCCCC(=O)NO)c2nc(OC)cc(C)c2c1 [compound 8, MPK544]
